Results: ChEMBL document CHEMBL1287767, “Experimental solubility profiling of marketed CNS drugs, exploring solubility limit of CNS discovery candidate” (Bioorg Med Chem Lett, 2010)
≈ marks a conversion by molar mass, not a printed value.

Tests used:
[1] = Solubility of the compound in 0.1 M phosphate buffer at 600 uM at pH 7.4 after 24 hrs by LC/MS/MS analysis; settings: pH 7.4
[2] = Solubility of the compound in water; assay type: physicochemical
[3] = Solubility of the compound at pH 7.4; assay type: physicochemical; settings: buffer
[4] = Solubility of the compound in water at pH 7; assay type: physicochemical
[5] = Solubility of the compound in water at pH 7.4; assay type: physicochemical
[6] = Solubility of the compound in PBS at pH 7.4; assay type: physicochemical
[7] = Solubility of the compound in Mcllvaine buffer at pH 7.4; assay type: physicochemical; settings: McIlvaine buffer

With `CNS(=O)(=O)CCc1ccc2[nH]cc(C3CCN(C)CC3)c2c1` the solubility at 24 h, 600 µM ([1]; 0.1 M phosphate buffer) was > 500 µM.

For `CNS(=O)(=O)Cc1ccc2[nH]cc(CCN(C)C)c2c1`, the solubility at 24 h, 600 µM ([1]; 0.1 M phosphate buffer) was > 500 µM.

In the case of `CC[C@@H](C(N)=O)N1CCCC1=O`, the solubility [2] was 1000 mg/mL and the solubility at 24 h, 600 µM ([1]; 0.1 M phosphate buffer) was > 500 µM.

With `CN1CCC[C@@H]1Cc1c[nH]c2ccc(CCS(=O)(=O)c3ccccc3)cc12` the solubility at 24 h, 600 µM ([1]; 0.1 M phosphate buffer) was > 500 µM.

For `CCN(CC)C(=O)C1(c2ccccc2)CC1CN` (stereo not drawn), the solubility at 24 h, 600 µM ([1]; 0.1 M phosphate buffer) was > 500 µM.

`COc1ccc(C(=O)N2CCCC2=O)cc1` showed a solubility at 24 h, 600 µM ([1]; 0.1 M phosphate buffer) of 500 µM (≈ 110 µg/mL).

With `CCCN(CCC)C(=O)Cc1c(-c2ccc(Cl)cc2)nc2ccc(Cl)cn12` [ALPIDEM] the solubility [3] was 0.1 µM and the solubility at 24 h, 600 µM ([1]; 0.1 M phosphate buffer) was 0.75 µM (≈ 0.303 µg/mL).

Work on `Cc1nnc2n1-c1ccc(Cl)cc1C(c1ccccc1)=NC2` [ALPRAZOLAM] yielded a solubility [4] of 0.04 mg/mL (≈ 130 µM) and a solubility at 24 h, 600 µM ([1]; 0.1 M phosphate buffer) of 213 µM (≈ 65.8 µg/mL).

For `CCN1CCCC1CNC(=O)c1cc(S(=O)(=O)CC)c(N)cc1OC` (stereo not drawn) [AMISULPRIDE], the solubility at 24 h, 600 µM ([1]; 0.1 M phosphate buffer) was > 500 µM.

In the case of `CC(N)Cc1ccccc1` (stereo not drawn) [AMPHETAMINE], the solubility at 24 h, 600 µM ([1]; 0.1 M phosphate buffer) was > 500 µM.

In the case of `O=C1CCc2ccc(OCCCCN3CCN(c4cccc(Cl)c4Cl)CC3)cc2N1` [ARIPIPRAZOLE], the solubility at 24 h, 600 µM ([1]; 0.1 M phosphate buffer) was 1.03 µM (≈ 0.462 µg/mL).

For `CNCC[C@@H](Oc1ccccc1C)c1ccccc1` [ATOMOXETINE], the solubility at 24 h, 600 µM ([1]; 0.1 M phosphate buffer) was > 500 µM.

In the case of `O=C1CN=C(c2ccccn2)c2cc(Br)ccc2N1` [BROMAZEPAM], the solubility at 24 h, 600 µM ([1]; 0.1 M phosphate buffer) was 334 µM (≈ 106 µg/mL).

`CCCCN1CCCCC1C(=O)Nc1c(C)cccc1C` (stereo not drawn) [BUPIVACAINE] gave a solubility [5] of 0.42 mg/mL (≈ 1460 µM) and a solubility at 24 h, 600 µM ([1]; 0.1 M phosphate buffer) of 352 µM (≈ 102 µg/mL).

With `CC(NC(C)(C)C)C(=O)c1cccc(Cl)c1` (stereo not drawn) [BUPROPION] the solubility ([6]; PBS, read-out: solubility) was 10 mg/mL (≈ 41700 µM) and the solubility at 24 h, 600 µM ([1]; 0.1 M phosphate buffer) was 328 µM (≈ 78.6 µg/mL).

With `O=C1CC2(CCCC2)CC(=O)N1CCCCN1CCN(c2ncccn2)CC1` [BUSPIRONE] the solubility at 24 h, 600 µM ([1]; 0.1 M phosphate buffer) was > 500 µM.

In the case of `Oc1ccc2c(c1)[C@@]13CCCC[C@@]1(O)[C@@H](C2)N(CC1CCC1)CC3` [BUTORPHANOL], the solubility at 24 h, 600 µM ([1]; 0.1 M phosphate buffer) was > 500 µM.

In the case of `NC(=O)N1c2ccccc2C=Cc2ccccc21` [CARBAMAZEPINE], the solubility at 24 h, 600 µM ([1]; 0.1 M phosphate buffer) was > 490 µM.

With `C[C@@](Cc1ccc(O)c(O)c1)(NN)C(=O)O.O` [CARBIDOPA] the solubility at 24 h, 600 µM ([1]; 0.1 M phosphate buffer) was > 500 µM.

With `CN(C)CCCC1(c2ccc(F)cc2)OCc2cc(C#N)ccc21` (stereo not drawn) [CITALOPRAM] the solubility at 24 h, 600 µM ([1]; 0.1 M phosphate buffer) was > 500 µM.

For `O=C1CN=C(c2ccccc2Cl)c2cc([N+](=O)[O-])ccc2N1` [CLONAZEPAM], the solubility [2] was < 0.1 mg/mL and the solubility at 24 h, 600 µM ([1]; buffer) was 30.2 µM (≈ 9.53 µg/mL).

With `O=C(O)C1N=C(c2ccccc2)c2cc(Cl)ccc2NC1=O` (stereo not drawn) [CLORAZEPIC ACID] the solubility at 24 h, 600 µM ([1]; 0.1 M phosphate buffer) was > 495 µM.

With `CN1CCN(C2=Nc3cc(Cl)ccc3Nc3ccccc32)CC1` [CLOZAPINE] the solubility at 24 h, 600 µM ([1]; 0.1 M phosphate buffer) was > 420 µM.

Work on `CCN[C@@H](C)Cc1cccc(C(F)(F)F)c1` [DEXFENFLURAMINE] yielded a solubility at 24 h, 600 µM ([1]; 0.1 M phosphate buffer) of 500 µM (≈ 116 µg/mL).

`CN1C[C@H](C(=O)N[C@]2(C)O[C@@]3(O)[C@@H]4CCCN4C(=O)[C@H](Cc4ccccc4)N3C2=O)C[C@@H]2c3cccc4[nH]cc(c34)C[C@H]21` [DIHYDROERGOTAMINE] gave a solubility at 24 h, 600 µM ([1]; 0.1 M phosphate buffer) of 37 µM (≈ 21.6 µg/mL).

For `O=C(O[C@@H]1C[C@@H]2C[C@H]3C[C@H](C1)N2CC3=O)c1c[nH]c2ccccc12` [DOLASETRON], the solubility at 24 h, 600 µM ([1]; 0.1 M phosphate buffer) was 195 µM (≈ 63.3 µg/mL).

In the case of `CCCCCc1cc(O)c2c(c1)OC(C)(C)[C@@H]1CCC(C)=C[C@@H]21` [DRONABINOL], the solubility at 24 h, 600 µM ([1]; 0.1 M phosphate buffer) was > 500 µM.

In the case of `CNCC[C@H](Oc1cccc2ccccc12)c1cccs1` [DULOXETINE], the solubility at 24 h, 600 µM ([1]; buffer) was > 500 µM.

For `CN(C)CCC[C@@]1(c2ccc(F)cc2)OCc2cc(C#N)ccc21` [ESCITALOPRAM], the solubility at 24 h, 600 µM ([1]; 0.1 M phosphate buffer) was > 500 µM.

In the case of `CCc1cc2c(s1)-n1c(C)nnc1CN=C2c1ccccc1Cl` [ETIZOLAM], the solubility at 24 h, 600 µM ([1]; 0.1 M phosphate buffer) was > 480 µM.

In the case of `NC(=O)OCC(COC(N)=O)c1ccccc1` [FELBAMATE], the solubility at 24 h, 600 µM ([1]; 0.1 M phosphate buffer) was > 500 µM.

With `CN1C(=O)CN=C(c2ccccc2F)c2cc([N+](=O)[O-])ccc21` [FLUNITRAZEPAM] the solubility at 24 h, 600 µM ([1]; 0.1 M phosphate buffer) was 54 µM (≈ 16.9 µg/mL).

With `CCOC(=O)Nc1ccc(NCc2ccc(F)cc2)nc1N` [FLUPIRTINE] the solubility at 24 h, 600 µM ([1]; 0.1 M phosphate buffer) was > 500 µM.

With `COCCCC/C(=N\OCCN)c1ccc(C(F)(F)F)cc1` [FLUVOXAMINE] the solubility at 24 h, 600 µM ([1]; 0.1 M phosphate buffer) was > 500 µM.

In the case of `NCC1(CC(=O)O)CCCCC1` [GABAPENTIN], the solubility [3] was 0.441 mg/mL and the solubility at 24 h, 600 µM ([1]; 0.1 M phosphate buffer) was > 500 µM.

With `CN1C2CCCC1CC(NC(=O)c1nn(C)c3ccccc13)C2` (stereo not drawn) [GRANISETRON] the solubility at 24 h, 600 µM ([1]; 0.1 M phosphate buffer) was > 500 µM.

In the case of `CC(C)Cc1ccc(C(C)C(=O)O)cc1` (stereo not drawn) [IBUPROFEN], the solubility ([6]; buffer) was 6.02 mg/mL (≈ 29200 µM) and the solubility at 24 h, 600 µM ([1]; buffer) was > 500 µM.

Work on `COC1=C(OC)C(=O)C(CCCCCCCCCCO)=C(C)C1=O` [IDEBENONE] yielded a solubility [2] of 23.6 µM and a solubility at 24 h, 600 µM ([1]; 0.1 M phosphate buffer) of 16 µM (≈ 5.42 µg/mL).

In the case of `O=C(c1ccccc1)c1ccc2n1CCC2C(=O)O` (stereo not drawn) [KETOROLAC], the solubility at 24 h, 600 µM ([1]; 0.1 M phosphate buffer) was > 459 µM.

`Nc1nnc(-c2cccc(Cl)c2Cl)c(N)n1` [LAMOTRIGINE] gave a solubility [7] of 0.00048 mg/mL (≈ 1.87 µM) and a solubility at 24 h, 600 µM ([1]; 0.1 M phosphate buffer) of 307 µM (≈ 78.6 µg/mL).

With `OC[C@@H](O)CN1CCN(c2ccccc2)CC1` [LEVODROPROPIZINE] the solubility at 24 h, 600 µM ([1]; 0.1 M phosphate buffer) was > 500 µM.

Work on `O=C1Nc2ccc(Cl)cc2C(c2ccccc2Cl)=NC1O` (stereo not drawn) [LORAZEPAM] yielded a solubility [2] of 0.08 mg/mL and a solubility at 24 h, 600 µM ([1]; buffer) of 24 µM (≈ 7.71 µg/mL).
